# Laboratory results published in US12195427B2, “MASP-2 inhibitors and methods of use” (priority 2018, dated 2025).
# Molecular target: MASP-2 CCP2-SP (Homo sapiens (Human), UniProt O00187)
# Test: MASP-2 co-crystallization, X-ray crystallography and structure analysis (H-bonds, van der Waals contacts);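 as to Ligand-pharmacophore element distance, pharmacophore element C2: distance from averaged pharmacophore element to bound ligand; missing value means element absent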;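 as to Ligand-pharmacophore element distance, pharmacophore element C3: distance from averaged pharmacophore element to bound ligand; missing value means element absent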;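 as to Ligand-pharmacophore element distance, pharmacophore element C4: distance from averaged pharmacophore element to bound ligand; missing value means element absent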;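 as to Ligand-pharmacophore element distance, pharmacophore element C5: distance from averaged pharmacophore element to bound ligand; missing value means element absent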
# Design: van der Waals contact distance, MASP-2 HIS 483 atom CD2 / van der Waals contact distance, MASP-2 HIS 483 atom NE2 / van der Waals contact distance, SER 654 C to compound atom / van der Waals contact distance, SER 654 O to compound atom / van der Waals contact distance, TRP 655 C to compound atom / van der Waals contact distance, MASP-2 GLY 528 atom CA / van der Waals contact distance TRP 655 atom CZ3 / van der Waals contact distance TRP 655 atom N / van der Waals contact distance TRP 655 atom CE3 / van der Waals contact distance GLY 656 atom C / van der Waals contact distance GLY 656 atom CA / van der Waals contact distance GLY 656 atom O / van der Waals contact distance, MASP-2 TYR 607 atom CD1 / van der Waals contact distance, MASP-2 PRO 606 atom O / d(C3,CA1) / d(CA1,N1)2 / d(H4,O1) / d(H4,O2) / d(O1,O2) / d(CA1,O2) / d(CA6,O1) / d(CA6,O2) / d(CA1,C5) / d(O2,H3) / d(N2,C2) / d(CA5,N2) / d(N2,C4) / d(N2,C6) / d(N2,CA3) / d(N2,O3) / d(O4,H2): unit not given beside the values
# Method in brief: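 Soaked crystals of recombinant CCP2-SP (E. coli) yield the structures, phased by molecular replacement on 1Q3X pieces. Hydrophobic or nonbonded contacts can also cover atom pairs that are potential hydrogen bonds.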
# [1] = Table A5-1 pharmacophore: distance between elements, S2/S1 region
# [2] = Table A5-2 pharmacophore distance, S3/S4 region
# [3] = Table A7-1, between pharmacophore elements of the bound compound
# [4] = Table A8-6, nearest protein atom in cell to the left
# MASP-2 CCP2-SP, sequence (O00187 445-686): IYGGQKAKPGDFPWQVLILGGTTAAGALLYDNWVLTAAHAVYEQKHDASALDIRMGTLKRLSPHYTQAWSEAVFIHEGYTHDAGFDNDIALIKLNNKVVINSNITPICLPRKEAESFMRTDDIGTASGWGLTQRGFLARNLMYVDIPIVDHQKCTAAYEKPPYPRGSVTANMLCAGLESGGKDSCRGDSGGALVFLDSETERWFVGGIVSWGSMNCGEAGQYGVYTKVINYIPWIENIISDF
# MASP-2 CCP2-SP, sequence (O00187 364-432 partner): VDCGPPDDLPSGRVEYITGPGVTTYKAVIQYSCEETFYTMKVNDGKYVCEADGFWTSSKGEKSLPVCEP
compound,measurement,setting,value
C[C@H](NC(=O)C1C[C@@H](c2ccccc2)CCN1)C(=O)NCc1ccc(C(=N)N)cc1 (stereo in doubt) [compound 1063],H-bond distance to MASP-2 GLY 656 atom N,"Table A1 (H-Bonds), GLY 656 N",3.25
same,H-bond distance to MASP-2 SER 628 atom O,"Table A1 (H-Bonds), SER 628 O",2.93
same,H-bond distance to MASP-2 SER 654 atom O,"Table A1 (H-Bonds), SER 654 O",2.94
same,H-bond distance to MASP-2 SER 657 atom O,"Table A1 (H-Bonds), SER 657 O",2.83
same,"van der Waals contact distance, MASP-2 PHE 529 atom CD1",Table A2-3,3.71
same,"van der Waals contact distance, MASP-2 amino acid atom to compound atom","Table A2-5: TYR 607 (CE1, CE2, OH), PRO 608 (CD, CG), SER 611 (CA)",3.85
same,van der Waals contact distance GLY 656 atom C,"Table A2-13, MASP-2 GLY 656 C",3.36
same,van der Waals contact distance TRP 655 atom O,"Table A2-13, MASP-2 TRP 655 O",3.84
same,van der Waals contact distance SER 657 atom C,"Table A2-14, MASP-2 SER 657 C, columns c12-c13 (inferred)",3.75
same,"Ligand-pharmacophore element distance, pharmacophore element C2","Table A4-1, element C2",0.48
same,"Ligand-pharmacophore element distance, pharmacophore element C3","Table A4-1, element C3",0
same,"Ligand-pharmacophore element distance, pharmacophore element C4","Table A4-1, element C4",0
same,"Ligand-pharmacophore element distance, pharmacophore element C5","Table A4-1, element C5",0
same,"Ligand-pharmacophore element distance, pharmacophore element C6","Table A4-1, element C6",0
same,"Ligand-pharmacophore element distance, pharmacophore element C7","Table A4-1, element C7",0
same,"Ligand-pharmacophore element distance, pharmacophore element CA1","Table A4-1, element CA1",0.3
same,"Ligand-pharmacophore element distance, pharmacophore element CA2","Table A4-1, element CA2",0.85
same,"Ligand-pharmacophore element distance, pharmacophore element CA3","Table A4-1, element CA3",0
same,"Ligand-pharmacophore element distance, pharmacophore element CA4","Table A4-1, element CA4",0
same,"Ligand-pharmacophore element distance, pharmacophore element CA5","Table A4-1, element CA5",0
same,"Ligand-pharmacophore element distance, pharmacophore element CA6","Table A4-1, element CA6",0
same,"d(CA1,N1)",[1],3.56
same,"d(CA1,O1)",[1],4.95
same,"d(CA1,O2)",[1],3.58
same,"d(H4,O1)",[1],5.37
same,"d(H4,O2)",[1],3.82
same,"d(O1,O2)",[1],3.31
same,"d(N2,C2)",[2],1.38
same,"d(N2,CA2)",[2],5.62
same,"d(O2,H3)",[2],4.92
same,"d(O2,N2)",[2],3.36
same,"a(CA1, O1, O2)",Table A6-1 pharmacophore angle,88.32
same,"a(O1, O2, H4)",Table A6-1 pharmacophore angle,142.43
same,"A(N1, CA1, O1) a)","Table A6-1 pharmacophore angle, all compounds with protonatable center N1 except Methyl-amino-pyridine",167.99
same,"a(O1, O2, H3)",Table A6-2 pharmacophore angle,157.64
same,"a(O1, O2, N2)",Table A6-2 pharmacophore angle,139.49
same,"a(O2, N2, C2)",Table A6-2 pharmacophore angle,118.75
same,"a(O2, N2, CA2)",Table A6-2 pharmacophore angle,154.05
same,"Pharmacophore torsion angle a(H4, O1, O2, H3)",[3],54.13
same,"Pharmacophore torsion angle a(H4, O1, O2, N2)",[3],155.02
same,"Pharmacophore torsion angle a(N1, CA1, O2, H4)",[3],−130.71
same,"Pharmacophore torsion angle a(O1, H4, O2, CA1)",[3],−74.94
same,"Pharmacophore torsion angle a(O1, O2, N2, C2)",[3],150.29
same,Pharmacophore protein distance to MET_658 (first MET_658 column),"Table A8-6, 6th residue column, nearest protein atom in cell to the left",1.74
same,Pharmacophore protein distance to MET_658 (second MET_658 column),"Table A8-6, 9th residue column, nearest protein atom in cell to the left",2.75
same,Pharmacophore protein distance to GLY_528,[4],3.37
same,Pharmacophore protein distance to PHE_529,[4],3.00
same,Pharmacophore protein distance to PRO_608,[4],4.92
same,Pharmacophore protein distance to SER_611,[4],3.00
same,Pharmacophore protein distance to TRP_655,"Table A8-6, pharmacophore elements C6, CA3, O3, H1, nearest protein atom in cell to the left",3.73
